Measured values taken from a melting point compilation (Tetko et al.).

Structure (SMILES) | melting point
NC(=O)CCCl | 142 to 144 °C
Fc1cccc(CBr)c1Cl | 39 to 41 °C
CCCCc1ccc(C(=O)CCC(=O)O)cc1 | 113 to 115 °C
Cc1nc(S)c2c(=O)n(C)c(=O)n(CC(C)C)c2n1 | 172 to 174 °C
CCc1nc(C)ncc1C(=O)O | 158 to 160 °C
NC(CCN1CCCCC1)=NO | 137 to 139 °C
O=c1[nH]c(-c2ccc3c(c2)OCCO3)cs1 | 229 to 231 °C
CC(C)C1(C(=O)O)CC1 | 54 to 56 °C
O=[N+]([O-])c1cnn(CCCl)c1 | 55 to 57 °C
c1ccc2sc(C3CCNCC3)nc2c1 | 127 to 129 °C
CC(=O)NCCc1ccc(S(=O)(=O)Cl)cc1 | 131 to 133 °C
O=C(CCl)Nc1ccnn1Cc1ccccc1Cl | 119 to 121 °C
O=C(O)CCc1ccoc1 | 63 to 65 °C
O=C(NCCO)c1ccccc1C(F)(F)F | 61 to 63 °C
O=C(O)C1CCN(c2cnccn2)CC1 | 149 to 151 °C
O=C1COc2cc(S(=O)(=O)Cl)c(Cl)cc2N1 | 248 to 250 °C
CC(C)(C)C(=O)C(Cl)Cl | 50 to 52 °C
O=Cc1cscn1 | 61 to 63 °C
CCOC(=O)c1sc(N(C)C)nc1C | 39 to 41 °C
O=C(Cc1cccc2ccccc12)NO | 179 to 181 °C
O=C(O)c1nnn(-c2ccc(F)cc2)c1C1CC1 | 173 to 175 °C
NC(=S)c1ncc(N)s1 | 191 to 193 °C
Cc1ccc(C(=O)CCl)cc1C | 51 to 53 °C
O=C1CN=C(S)N1Cc1ccccc1 | < 17 °C
O=C(O)Cc1c[nH]c2cccc(Br)c12 | 184 to 186 °C

Structure (SMILES) | melting point
COC(C)c1nc(CC(=O)O)cs1 (centres undefined) | 154 to 156 °C
Cc1ccc(C#N)c(Br)c1 | 50 to 55 °C
OCc1sc(N2CCOCC2)nc1-c1ccccc1 | 118 to 120 °C
Cc1cc(C(=O)O)c2c(C3CC3)noc2n1 | 201 to 203 °C
NC(CC(=O)Nc1ccccc1)=NO | 156 to 158 °C
Cn1cc(S(=O)(=O)Cl)cc1C(=O)C(Cl)(Cl)Cl | 158 to 160 °C
Cc1ccc(-c2cc(C(=O)O)c3c(C)noc3n2)c(C)c1 | 222 to 224 °C
O=Cc1cn(Cc2ccccc2)nc1-c1cccs1 | 90 to 91 °C
O=C(O)c1nn(-c2ccccc2)cc1CCCO | 119 to 121 °C
CC1CCc2[nH]c(=O)sc2C1 (centres undefined) | 180 to 182 °C
Cc1nc(COc2ccc(/C=C/C(=O)O)cc2)cs1 | 185 to 187 °C
Sc1nnc(N2CCOCC2)n1CC1CCCO1 (centres undefined) | 186 to 188 °C
O=C(O)CN1C(=O)COc2ccc(S(=O)(=O)Cl)cc21 | 159 to 161 °C
O=C(O)C1CCN(c2ccc3cccc(O)c3n2)CC1 | 281 to 283 °C
O=C1C2C3CC4C5C3C1C5C1(OCCO1)C42 (centres undefined) | 73 to 75 °C
O=c1oc2ccccc2c(Cl)c1[N+](=O)[O-] | 160 to 162 °C
O=C(Nc1ccc(Cl)cn1)OCC(F)(F)F | 158 to 160 °C
CN(C)S(=O)(=O)c1cn(C)cn1 | 119 to 121 °C
CCN1N=C(C(F)(F)F)CC1=O | 169 to 171 °C
CC1=NN(C2CCS(=O)(=O)C2)C(=O)C1 (centres undefined) | 185 to 187 °C
O=C(O)c1ccc(NC(=O)C23CC4CC(CC(C4)C2)C3)cc1 | 284 to 286 °C
NC(=S)NC1CCOCC1 | 228 to 230 °C
Cc1ccc(-c2ocnc2C(=O)O)cc1 | 193 to 195 °C
O=C(O)CCCn1ccccc1=O | 121 to 123 °C
c1ccc2sc(C3CCCCN3)nc2c1 (centres undefined) | 200 to 202 °C

Continued, values first:

melting point | Structure (SMILES)
139 to 141 °C | Nc1cc(N2CCCC2=O)ccc1Cl
124 to 126 °C | Cc1cc(C(=O)N2CCCC2)ccc1N
180 to 182 °C | Nc1ccc(S(=O)(=O)NCc2ccco2)cc1
76 to 78 °C | CSc1cccc(NC2CCN(C)CC2)c1
188 to 190 °C | Nc1ccc2[nH]c(-c3cc(F)ccc3F)nc2c1
82 to 84 °C | COc1ccc2c(c1)OCC(C=O)=C2
91 to 93 °C | Cc1cccc([N+](=O)[O-])c1S(=O)(=O)Cl
56 to 58 °C | COc1ccc(OC)c(NC(=O)C(C)Cl)c1 (centres undefined)
286 to 288 °C | O=C(O)c1sc2cc(Br)ccc2c1Cl
103 to 105 °C | Nc1ccc(CSc2ccccn2)cc1
52 to 54 °C | Cc1coc(-c2cc(N)ccc2C)n1
187 to 189 °C | COc1ccc(NC(=O)c2ccc(N)cc2)cc1
136 to 138 °C | COc1ccc2nc(Cl)ccc2c1S(=O)(=O)Cl
119 to 121 °C | N#Cc1ccc(S(=O)(=O)Cl)c([N+](=O)[O-])c1
169 to 171 °C | O=C(O)c1ccc(Oc2cccc(F)c2[N+](=O)[O-])c(Cl)c1
114 to 116 °C | N#CC(N)c1cccc(Cl)c1Cl (centres undefined)
135 to 137 °C | Nc1ccc(C2CC2)nn1
149 to 151 °C | Nc1nc(-c2ccccc2)no1
143 to 145 °C | Sc1nnc(NCCc2ccccc2)s1
141 to 143 °C | Cc1cc(C)cc(NC(=O)CCl)c1
57 to 59 °C | O=[N+]([O-])c1ccc(F)cc1S(=O)(=O)Cl
49 to 51 °C | COC(=O)c1ccc(C(F)(F)F)cc1SC
114 to 116 °C | COc1ccc(-c2ccc(CN)s2)cc1
189 to 191 °C | COc1ccc(CCNc2nnc(S)s2)cc1OC
62 to 64 °C | O=C1CCOc2c(Cl)cccc21
219 to 221 °C | CC(C)C1OC(N)=NC1=O (centres undefined)
39 to 41 °C | CC(C)Oc1ccc(N)cc1C#N

melting point | Structure (SMILES)
240 to 242 °C | Nc1nc2cc(S(=O)(=O)N3CCCC3)ccc2o1
234 to 236 °C | NS(=O)(=O)Cc1cccc(C(=O)O)c1
158 to 160 °C | Cc1cccc([N+](=O)[O-])c1C(N)=O
126 to 128 °C | CS(=O)(=O)Nc1ccc(C(F)(F)F)cc1N
102 to 104 °C | O=C(O)c1cccc(Oc2nccs2)c1
213 to 215 °C | Cc1cc(=O)[nH]c(-c2cccc(O)c2)n1
49 to 51 °C | CCn1c(C=O)nc2ccccc21
181 to 183 °C | Nc1ccc(F)c(N2CCS(=O)(=O)CC2)c1
126 to 128 °C | COc1cc(N)c(N)cc1OC
133 to 135 °C | O=C(Nc1cccnc1)c1cccc(Br)c1
48 to 50 °C | Cc1cc(S(=O)(=O)Cl)ccc1[N+](=O)[O-]
149 to 151 °C | CC(O)c1ccc2c(c1)Nc1ccccc1S2 (centres undefined)
166 to 168 °C | CC(=O)Nc1ccc(N)nc1
165 to 167 °C | Cc1c(C(=O)O)nnn1-c1ccccc1Cl
188 to 190 °C | NC(=O)c1ccc(S(=O)(=O)Cl)cc1
118 to 120 °C | Cc1cc([N+](=O)[O-])ccc1NC(=O)CCl
129 to 131 °C | COc1ccc(C(N)=NO)c(OC)c1
198 to 200 °C | Nc1ccnc2ccnn12
127 to 131 °C | CC(=O)c1ccc(N2CCCC2=O)cc1
258 to 260 °C | NC(=S)c1ccnc(-n2cncn2)c1
52 to 54 °C | Cc1ccc(N=C=O)c(C#N)c1
81 to 83 °C | Cc1ccccc1C(N)=NO
232 to 234 °C | Cc1cc(C(=O)O)c2c(Br)cccc2n1
109 to 111 °C | CN(C1CCCCC1)S(=O)(=O)c1cccc(N)c1
184 to 186 °C | COc1ccc2nc(C(=O)O)ccc2c1
167 to 169 °C | CN(C)c1ccc(NC(=S)NN)cc1
207 to 209 °C | COc1ccc(-c2nc(N)sc2-c2ccc(OC)cc2)cc1
